Drawing on US11174251B2, “Compositions and methods for inhibition of the JAK pathway” (Rigel Pharmaceuticals, Inc., priority 2010, dated 2021), this text covers IC50 for 25 compounds.

Usually IC50 stands for the concentration needed to halve the response being measured. Higher therefore signals weaker potency in that assay.

The structures appear in SMILES notation. Where a name gives a salt, the structure may show the parent alone.

The test deals with T1, JAK3 (Homo sapiens, UniProt P52333).
T1 construct: The Ramos B-cell line was acquired from ATCC (ATCC Catalog No. CRL-1596); host or cells: Ramos B-cell line (human)
T1 sequence (P52333 1-1124): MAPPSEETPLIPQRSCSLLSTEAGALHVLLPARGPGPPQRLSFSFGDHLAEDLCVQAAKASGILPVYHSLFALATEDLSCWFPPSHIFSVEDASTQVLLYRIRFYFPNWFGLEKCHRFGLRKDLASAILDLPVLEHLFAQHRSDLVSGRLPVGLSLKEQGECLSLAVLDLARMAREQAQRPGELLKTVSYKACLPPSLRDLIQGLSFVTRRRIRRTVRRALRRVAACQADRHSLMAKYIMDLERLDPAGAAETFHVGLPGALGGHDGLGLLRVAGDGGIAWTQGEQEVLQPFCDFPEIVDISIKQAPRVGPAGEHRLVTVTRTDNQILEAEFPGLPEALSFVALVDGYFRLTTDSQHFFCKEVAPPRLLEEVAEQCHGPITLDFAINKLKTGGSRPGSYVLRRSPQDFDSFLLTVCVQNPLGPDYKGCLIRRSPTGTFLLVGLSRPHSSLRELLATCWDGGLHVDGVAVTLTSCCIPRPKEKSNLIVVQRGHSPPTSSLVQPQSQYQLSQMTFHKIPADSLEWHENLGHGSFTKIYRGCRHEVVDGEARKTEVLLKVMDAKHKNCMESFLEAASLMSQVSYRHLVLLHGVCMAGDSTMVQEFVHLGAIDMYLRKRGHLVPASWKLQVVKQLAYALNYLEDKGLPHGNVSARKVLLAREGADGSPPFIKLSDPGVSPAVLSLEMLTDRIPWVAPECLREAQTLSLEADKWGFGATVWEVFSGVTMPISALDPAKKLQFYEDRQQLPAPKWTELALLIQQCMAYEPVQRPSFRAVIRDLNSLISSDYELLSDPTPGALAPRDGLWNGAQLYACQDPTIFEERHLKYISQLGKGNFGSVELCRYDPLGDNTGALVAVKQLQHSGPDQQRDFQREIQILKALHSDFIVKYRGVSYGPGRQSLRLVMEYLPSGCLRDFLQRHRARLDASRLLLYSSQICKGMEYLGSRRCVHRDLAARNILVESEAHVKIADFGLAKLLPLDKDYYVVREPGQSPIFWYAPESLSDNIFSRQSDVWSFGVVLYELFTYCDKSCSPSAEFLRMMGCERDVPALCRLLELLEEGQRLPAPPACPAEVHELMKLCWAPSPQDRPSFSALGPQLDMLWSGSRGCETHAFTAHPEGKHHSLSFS
Kind of test: Assay for CD23 expression on Ramos B-cells stimulated by IL-4 (Table IV: ability to inhibit JAK3 activity). Conditions: tested under conditions described in Example 3 (so in the source). The class given is cell-based. The gist of the method:
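Human Ramos B cells in RPMI with 5% serum, pre-incubated 1 h at 37 °C with compound or DMSO, then stimulated with IL-4 (final 50 units/mL) for 20–24 h. Surface CD23 upregulation measured by FACS staining as readout of JAK1/JAK3–Stat-6 signalling.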
For `Cc1cc(Nc2ncc(CN3CCCCC3)c(Nc3ccc4oc(=O)[nH]c4c3)n2)cc(C)c1C` [Compound I-99, 5-(2-(3,4,5-trimethylphenylamino)-5-((piperidin-1-yl)methyl)pyrimidin-4-ylamino)benzo[d]oxazol-2(3H)-one], the IC50 was more than 10000 nM.
The same measure for `Cc1cc(Nc2ncc(CN3CCN(C)CC3)c(Nc3ccc4oc(=O)[nH]c4c3)n2)cc(C)c1C` [Compound I-100, 5-(2-(3,4,5-trimethylphenylamino)-5-((4-methylpiperazin-1-yl)methyl)pyrimidin-4-ylamino)benzo[d]oxazol-2(3H)-one]: 500 to 5000 nM; for `CCOc1ccc(Nc2ncc(C)c(Nc3ccc4oc(=O)[nH]c4c3)n2)c(F)c1OCC` [Compound I-101, 5-(2-(3,4-diethoxy-2-fluorophenylamino)-5-methylpyrimidin-4-ylamino)benzo[d]oxazol-2(3H)-one]: less than 500 nM.
With `COc1ccc(Nc2ncc(C)c(Nc3ccc4oc(=O)[nH]c4c3)n2)c(F)c1OC` [Compound I-102, 5-(2-(2-fluoro-3,4-d6-dimethoxyphenylamino)-5-methylpyrimidin-4-ylamino)benzo[d]oxazol-2(3H)-one], the half-inhibitory concentration (IC50) is less than 500 nM.
The same measure for `CCOc1cc(Nc2ncc(C)c(Nc3ccc4oc(=O)[nH]c4c3)n2)cc(C)c1C` [Compound I-103, 5-(2-(3-ethoxy-4,5-dimethylphenylamino)-5-methylpyrimidin-4-ylamino)benzo[d]oxazol-2(3H)-one ditrifluoroacetate salt]: less than 500 nM; for `CCOc1cc(Nc2ncc(Cl)c(Nc3ccc4oc(=O)[nH]c4c3)n2)cc(C)c1C` [Compound I-104, 5-(5-chloro-2-(3-ethoxy-4,5-dimethylphenylamino)pyrimidin-4-ylamino)benzo[d]oxazol-2(3H)-one ditrifluoroacetate salt]: less than 500 nM; for `COc1cc(Nc2ncc(C)c(Nc3ccc4oc(=O)[nH]c4c3)n2)cc(C)c1F` [Compound I-105, 5-(2-(4-fluoro-3-methoxy-5-methylphenylamino)-5-methylpyrimidin-4-ylamino)benzo[d]oxazol-2(3H)-one]: less than 500 nM.
The same measure for `COc1cc(Nc2ncc(C)c(Nc3cc(C)c4oc(=O)[nH]c4c3)n2)cc(C)c1C` [Compound I-109, 5-(2-(3-methoxy-4,5-dimethylphenylamino)-5-methylpyrimidin-4-ylamino)-7-methylbenzo[d]oxazol-2(3H)-one trifluoroacetate trifluoroacetate salt]: less than 500 nM; for `COc1cc(Nc2ncc(F)c(Nc3cc(C)c4oc(=O)[nH]c4c3)n2)cc(C)c1C` [Compound I-110, 5-(5-fluoro-2-(3-methoxy-4,5-dimethylphenylamino)pyrimidin-4-ylamino)-7-methylbenzo[d]oxazol-2(3H)-one trifluoroacetate salt]: less than 500 nM; for `COc1cc(Nc2ncc(C)c(Nc3cc(F)c4oc(=O)[nH]c4c3)n2)cc(C)c1C` [Compound I-111, 5-(2-(3-methoxy-4,5-dimethylphenylamino)-5-methylpyrimidin-4-ylamino)-7-fluorobenzo[d]oxazol-2(3H)-one trifluoroacetate trifluoroacetate salt]: less than 500 nM.
With `COc1cc(Nc2ncc(F)c(Nc3cc(F)c4oc(=O)[nH]c4c3)n2)cc(C)c1C` [Compound I-112, 7-fluoro-5-(5-fluoro-2-(3-methoxy-4,5-dimethylphenylamino)pyrimidin-4-ylamino)benzo[d]oxazol-2(3H)-one trifluoroacetate salt], the IC50 is less than 500 nM.
With `COc1cc(Nc2ncc(C)c(Nc3ccc4oc(=O)n(COP(=O)(O)O)c4c3)n2)cc(C)c1C` [Compound I-115, Disodium (5-(2-(3-methoxy-4,5-dimethylphenylamino)-5-methylpyrimidin-4-ylamino)-2-oxobenzo[d]oxazol-3(2H)-yl)methyl phosphate], the IC50 is 500 to 5000 nM.
The result for `COc1ccc(F)c(Nc2ncc(F)c(Nc3ccc4oc(=O)[nH]c4c3)n2)c1` [Compound I-119, 5-(5-fluoro-2-(2-fluoro-5-methoxyphenylamino)pyrimidin-4-ylamino)benzo[d]oxazol-2(3H)-one] reads 5000 to 10000 nM; that for `COc1cc(Nc2ncc(C)c(Nc3ccc4oc(=O)[nH]c4c3)n2)cc(F)c1C` [Compound I-120, 5-(2-(3-fluoro-5-methoxy-4-methylphenylamino)-5-methylpyrimidin-4-ylamino)benzo[d]oxazol-2(3H)-one trifluoroacetate salt], less than 500 nM.
The result for `COc1cc(Nc2ncc(F)c(Nc3ccc4oc(=O)[nH]c4c3)n2)cc(F)c1C` [Compound I-121, 5-(5-fluoro-2-(3-fluoro-5-methoxy-4-methylphenylamino)pyrimidin-4-ylamino)benzo[d]oxazol-2(3H)-one trifluoroacetate salt] reads less than 500 nM.
The same measure for `COc1cc(Nc2ncc(C)c(Nc3ccc4oc(=O)[nH]c4c3)n2)c(F)cc1C` [Compound I-122, 5-(2-(2-fluoro-5-methoxy-4-methylphenylamino)-5-methylpyrimidin-4-ylamino)benzo[d]oxazol-2(3H)-one trifluoroacetate salt]: 500 to 5000 nM; for `COc1cc(Nc2ncc(F)c(Nc3ccc4oc(=O)[nH]c4c3)n2)c(F)cc1C` [Compound I-123, 5-(5-fluoro-2-(2-fluoro-5-methoxy-4-methylphenylamino)pyrimidin-4-ylamino)benzo[d]oxazol-2(3H)-one trifluoroacetate salt]: 5000 to 10000 nM.
Take `COc1cc(Nc2ncc(C)c(Nc3ccc4oc(=O)[nH]c4c3)n2)cc(C)c1Cl` [Compound I-124, 5-(2-(4-chloro-3-methoxy-5-methylphenylamino)-5-methylpyrimidin-4-ylamino)benzo[d]oxazol-2(3H)-one trifluoroacetate salt]: the IC50 is less than 500 nM.
For the compound `COc1cc(Nc2ncc(C)c(Nc3ccc4oc(=O)n(C)c4c3)n2)cc(C)c1C` [Compound I-125, 5-(2-(3-methoxy-4,5-dimethylphenylamino)-5-methylpyrimidin-4-ylamino)-3-methylbenzo[d]oxazol-2(3H)-one trifluoroacetate salt], the IC50 was less than 500 nM.
Compound `Cc1cnc(Nc2cc(C)c(C)c(C)c2)nc1Nc1ccc2oc(=O)n(C)c2c1` [Compound I-126, 5-(2-(3,4,5-trimethylphenylamino)-5-methylpyrimidin-4-ylamino)-3-methylbenzo[d]oxazol-2(3H)-one trifluoroacetate salt] returned an IC50 of less than 500 nM.
The same measure for `COc1cc(Nc2ncc(C)c(Nc3ccc4oc(=O)n(C)c4c3)n2)cc(C)c1F` [Compound I-127, 5-(2-(4-fluoro-3-methoxy-5-methylphenylamino)-5-methylpyrimidin-4-ylamino)-3-methylbenzo[d]oxazol-2(3H)-one trifluoroacetate salt]: less than 500 nM; for `CCOC(=O)c1c(C)cc(Nc2ncc(C)c(Nc3ccc4oc(=O)[nH]c4c3)n2)cc1OC` [Compound I-128, ethyl 4-(4-(2,3-dihydro-2-oxobenzo[d]oxazol-5-ylamino)-5-methylpyrimidin-2-ylamino)-2-methoxy-6-methylbenzoate]: less than 500 nM.
`COc1cc(Nc2ncc(C)c(Nc3ccc4oc(=O)[nH]c4c3)n2)cc(C)c1CO` [Compound I-129, 4-(4-(2,3-dihydro-2-oxobenzo[d]oxazol-5-ylamino)-5-methylpyrimidin-2-ylamino)-2-methoxy-6-methylbenzyl alcohol trifluoroacetate salt] yielded an IC50 of less than 500 nM.
The same measure for `Cc1cnc(Nc2cc(C)c(C)c(C)c2)nc1Nc1ccc2oc(=O)n(COP(=O)(O)O)c2c1` [Compound I-130, 5-methyl-N4-[3-(phosphonooxy)methyl-2-oxo-2,3-dihydro-1,3-benzoxazol-5-yl]-N2-(3,4,5-trimethyl)phenyl-2,4-pyrimidinediamine arginine salt]: less than 500 nM; for `Cc1cnc(Nc2cc(C)c(C)c(C)c2)nc1Nc1ccc2oc(=O)[nH]c2c1` [Compound I-131, 5-methyl-N4-(2-oxo-2,3-dihydro-1,3-benzoxazol-5-yl)-N2-(3,4,5-trimethyl)phenyl-2,4-pyrimidinediamine benzenesulfonic acid salt]: less than 500 nM.
